#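 Method: 48-hour compound exposure of cells in 96-well plates, five concentrations, linear interpolation of endpoints. Abbreviation: GI50, concentration required for 50% inhibition of growth.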 Active and inactive are the calls of the source. Cut-off read from the data, not from the text of the source: active = GI50 up to about 1.1 µM and inactive = higher.
# Columns and labels:
# Assay in all cases: inhibition of tumour cell growth, NCI panel, 48 h
# SK-MEL-5 = test system: SK-MEL-5
# NCI-H226 = test system: NCI-H226
# K562 = test system: K562
# SNB-75 = test system: SNB-75
# HT-29 = test system: HT-29
# KM12 = test system: KM12
# Hs-578T = test system: Hs-578T
# SN12C = test system: SN12C
# CAKI-1 = test system: CAKI-1
# SK-MEL-2 = test system: SK-MEL-2
# NCI-H522 = test system: NCI-H522
# UO-31 = test system: UO-31
# PC-3 = test system: PC-3
# OVCAR-8 = test system: OVCAR-8
# BT-549 = test system: BT-549
# A498 = test system: A498
# DU-145 = test system: DU-145
# UACC-257 = test system: UACC-257
# SF-268 = test system: SF-268
# HCT-116 = test system: HCT-116
Structure (SMILES),GI50 (SK-MEL-5),GI50 (NCI-H226),GI50 (K562),GI50 (SNB-75),GI50 (HT-29),GI50 (KM12),GI50 (Hs-578T),GI50 (SN12C),GI50 (CAKI-1),GI50 (SK-MEL-2),GI50 (NCI-H522),GI50 (UO-31),GI50 (PC-3),GI50 (OVCAR-8),GI50 (BT-549),GI50 (A498),GI50 (DU-145),GI50 (UACC-257),GI50 (SF-268),GI50 (HCT-116)
N#Cc1ccc(-c2nc3cc(Cl)ccc3[nH]2)cc1,37.8 µM (inactive),99.5 µM (inactive),50.2 µM (inactive),> 100 µM (inactive),48.2 µM (inactive),25.3 µM (inactive),> 100 µM (inactive),51.1 µM (inactive),54.2 µM (inactive),> 100 µM (inactive),32.4 µM (inactive),27.6 µM (inactive),40.2 µM (inactive),42.8 µM (inactive),68.2 µM (inactive),,,,,
CCOc1cc(-c2nc3cc(F)ccc3s2)ccc1O,16.6 µM (inactive),17 µM (inactive),< 0.01 µM (active),,18.1 µM (inactive),17 µM (inactive),,19.1 µM (inactive),16.9 µM (inactive),17.2 µM (inactive),11.5 µM (inactive),12.9 µM (inactive),14.5 µM (inactive),15.8 µM (inactive),16.1 µM (inactive),12.6 µM (inactive),17.6 µM (inactive),16.8 µM (inactive),15.7 µM (inactive),20.6 µM (inactive)
O=C(CCNC12CC3CC(CC(C3)C1)C2)c1ccccc1,17.9 µM (inactive),33.1 µM (inactive),14.3 µM (inactive),33 µM (inactive),2.79 µM (inactive),23.6 µM (inactive),,16.6 µM (inactive),> 10 µM (inactive),15.9 µM (inactive),17.3 µM (inactive),25.1 µM (inactive),19.6 µM (inactive),21.6 µM (inactive),28.7 µM (inactive),17.4 µM (inactive),24.8 µM (inactive),15.3 µM (inactive),24.6 µM (inactive),15.2 µM (inactive)
COC(=O)[C@H](CCSC)NC(=O)c1ccc(CNC(=O)/C(C)=C/c2ccccc2)cc1,34.8 µM (inactive),> 100 µM (inactive),> 100 µM (inactive),3.81 µM (inactive),21 µM (inactive),82.4 µM (inactive),,88.1 µM (inactive),30.6 µM (inactive),20.7 µM (inactive),10.8 µM (inactive),43.5 µM (inactive),47 µM (inactive),23.3 µM (inactive),24.7 µM (inactive),> 100 µM (inactive),37.9 µM (inactive),20.7 µM (inactive),25.8 µM (inactive),50.9 µM (inactive)
COC1=C[C@]2(CCC(=O)O2)[C@@H]2Cc3ccccc3[C@H](O)[C@@H]2C1=O,17.5 µM (inactive),86.5 µM (inactive),38.4 µM (inactive),,> 100 µM (inactive),> 100 µM (inactive),> 100 µM (inactive),47.6 µM (inactive),47.6 µM (inactive),28.6 µM (inactive),21.7 µM (inactive),39.8 µM (inactive),31.2 µM (inactive),38 µM (inactive),49.3 µM (inactive),> 100 µM (inactive),,22.1 µM (inactive),68.9 µM (inactive),30.5 µM (inactive)
CCOC(=O)CCC(NC(=O)c1ccc(NCc2ccc3nc(-c4ccccc4)c(Cl)nc3c2)c2ccccc12)C(=O)OCC (configuration not stated),9.14 µM (inactive),> 100 µM (inactive),6.46 µM (inactive),> 100 µM (inactive),> 100 µM (inactive),> 100 µM (inactive),,> 100 µM (inactive),> 100 µM (inactive),72.9 µM (inactive),50.9 µM (inactive),> 100 µM (inactive),> 100 µM (inactive),> 100 µM (inactive),> 100 µM (inactive),> 100 µM (inactive),> 100 µM (inactive),16.2 µM (inactive),> 100 µM (inactive),> 100 µM (inactive)
Cc1oc2ccccc2c(=O)c1Cn1nnc2ccccc21,20.5 µM (inactive),53.1 µM (inactive),56.6 µM (inactive),45.6 µM (inactive),91.8 µM (inactive),> 100 µM (inactive),83.2 µM (inactive),> 100 µM (inactive),,> 100 µM (inactive),,47.3 µM (inactive),> 100 µM (inactive),43.3 µM (inactive),,62.1 µM (inactive),25.5 µM (inactive),26.4 µM (inactive),34.3 µM (inactive),59.7 µM (inactive)
CCOC(=O)c1c(N)sc2c1C(C(=O)OCC)CCCC2 (configuration not stated),75.2 µM (inactive),> 100 µM (inactive),52.8 µM (inactive),> 100 µM (inactive),> 100 µM (inactive),> 100 µM (inactive),43.9 µM (inactive),91 µM (inactive),,94.4 µM (inactive),,37.6 µM (inactive),32.9 µM (inactive),89.3 µM (inactive),> 100 µM (inactive),20.2 µM (inactive),,57.9 µM (inactive),,43.1 µM (inactive)
CC(=O)Nc1ccc2nc(-c3cccc(Cl)c3)cc(O)c2c1,4.93 µM (inactive),,,4.4 µM (inactive),11.2 µM (inactive),4.83 µM (inactive),2.59 µM (inactive),32.2 µM (inactive),,,3.1 µM (inactive),,4.72 µM (inactive),36.9 µM (inactive),15.4 µM (inactive),,,> 100 µM (inactive),,
CNC(=O)N1CN(c2ccccc2)C2(CCN(CCCC3(c4ccc(F)cc4)OCCO3)CC2)C1=O,> 100 µM (inactive),> 100 µM (inactive),> 100 µM (inactive),> 100 µM (inactive),> 100 µM (inactive),> 100 µM (inactive),> 100 µM (inactive),> 100 µM (inactive),> 100 µM (inactive),> 100 µM (inactive),> 100 µM (inactive),> 100 µM (inactive),> 100 µM (inactive),,,> 100 µM (inactive),> 100 µM (inactive),,> 100 µM (inactive),> 100 µM (inactive)
CC(NC(=O)C(N)CC(=O)O)C(=O)OC12CC3CC(CC(C3)C1)C2 (configuration not stated),> 100 µM (inactive),,> 100 µM (inactive),> 100 µM (inactive),> 100 µM (inactive),> 100 µM (inactive),> 100 µM (inactive),> 100 µM (inactive),> 100 µM (inactive),> 100 µM (inactive),> 100 µM (inactive),> 100 µM (inactive),> 100 µM (inactive),> 100 µM (inactive),,,13.4 µM (inactive),> 100 µM (inactive),> 100 µM (inactive),> 100 µM (inactive)
O=C(CSc1nnc(-c2ccc(/N=C\c3ccc(Cl)cc3)cc2)o1)Nc1ccc(Cl)cc1Cl,33.3 µM (inactive),19.7 µM (inactive),38 µM (inactive),22.7 µM (inactive),25.8 µM (inactive),28.6 µM (inactive),,24 µM (inactive),> 100 µM (inactive),25.2 µM (inactive),27 µM (inactive),33 µM (inactive),,28.5 µM (inactive),,> 100 µM (inactive),,25 µM (inactive),25.2 µM (inactive),22 µM (inactive)

# From ChEMBL document CHEMBL1201862, “PubChem BioAssay data set” (2004)
